Key:
Hepatitis B virus [1] = test: Antiviral activity against hepatitis B virus infected Hep G2.2.15 cells assessed as inhibition of HBeAg secretion; format: functional, organism-based; conditions: HepG2 2.2.15
[2] = Selectivity index, ratio of CC50 for human Hep G2.2.15 cells to IC50 for HBV surface antigen secretion; format: functional
[3] = Selectivity index, ratio of CC50 for human Hep G2.2.15 cells to IC50 for HBV e antigen secretion; format: functional
[4] = Cytotoxicity against human Hep G2.2.15 cells; format: cell-based, HepG2 2.2.15
Hepatitis B virus [5] = test: Antiviral activity against hepatitis B virus infected Hep G2.2.15 cells assessed as inhibition of HBsAg secretion; format: functional, organism-based; conditions: HepG2 2.2.15

With `O=C1CN=C(c2ccccc2Cl)c2cc(Cl)ccc2N1` [DELORAZEPAM] the IC50 (Hepatitis B virus [1]) was 4080 µM, the “Ratio CC50/IC50” value [2] was less than 1 and the “Ratio CC50/IC50” value [3] was less than 1. The CC50 [4] was 76 µM and the IC50 (Hepatitis B virus [5]) was 76 µM.
In the case of `CC(=O)Nc1c(-c2ccccc2Cl)c2cc(Cl)ccc2[nH]c1=O`, the IC50 (Hepatitis B virus [1]) is reported as 80 µM, the “Ratio CC50/IC50” value [2] is reported as 1.6 and the “Ratio CC50/IC50” value [3] is reported as 2.6. The CC50 [4] was 208 µM and the IC50 (Hepatitis B virus [5]) was 129 µM.
For `CC(=O)Nc1c(-c2ccccc2F)c2cc(Cl)ccc2[nH]c1=O`, the IC50 (Hepatitis B virus [1]) was 79 µM, the “Ratio CC50/IC50” value [2] was less than 1 and the “Ratio CC50/IC50” value [3] was less than 1. The CC50 [4] was 44 µM and the IC50 (Hepatitis B virus [5]) was 141 µM.
In the case of `Nc1c(-c2ccccc2)c2cc(Cl)ccc2[nH]c1=O`, the IC50 (Hepatitis B virus [1]) is reported as greater than 3990 µM, the “Ratio CC50/IC50” value [2] is reported as 6 and the “Ratio CC50/IC50” value [3] is reported as less than 1. It also gave a CC50 [4] of 399 µM and an IC50 (Hepatitis B virus [5]) of 67 µM.
In the case of `O=c1[nH]c2ccc(Cl)cc2c(-c2ccccc2)c1CCO`, the IC50 (Hepatitis B virus [1]) is reported as 950 µM, the “Ratio CC50/IC50” value [2] is reported as greater than 16 and the “Ratio CC50/IC50” value [3] is reported as greater than 5.2. It also gave a CC50 [4] greater than 4910 µM and an IC50 (Hepatitis B virus [5]) of 300 µM.
For `CC(=O)OC1N=C(c2ccccc2)c2cc(Cl)ccc2NC1=O` (stereo not given), the IC50 (Hepatitis B virus [1]) was greater than 4260 µM, the “Ratio CC50/IC50” value [2] was 2.3 and the “Ratio CC50/IC50” value [3] was less than 1. For the same molecule, the CC50 [4] was 678 µM and the IC50 (Hepatitis B virus [5]) was 292 µM.
In the case of `CC(=O)OC1N=C(c2ccccc2F)c2cc(Cl)ccc2NC1=O` (stereo not given), the IC50 (Hepatitis B virus [1]) is reported as 1220 µM, the “Ratio CC50/IC50” value [2] is reported as 2.2 and the “Ratio CC50/IC50” value [3] is reported as less than 1. It also gave a CC50 [4] of 344 µM and an IC50 (Hepatitis B virus [5]) of 160 µM.
In the case of `O=c1cc(-c2ccccc2F)c2cc(Cl)ccc2[nH]1`, the IC50 (Hepatitis B virus [1]) is reported as 2220 µM, the “Ratio CC50/IC50” value [2] is reported as greater than 1.9 and the “Ratio CC50/IC50” value [3] is reported as greater than 2.4. For the same molecule, the CC50 [4] was greater than 5460 µM and the IC50 (Hepatitis B virus [5]) was 2840 µM.
With `O=c1[nH]c2ccc(Cl)cc2c(-c2ccccc2Cl)c1CCO` the IC50 (Hepatitis B virus [1]) was 449 µM, the “Ratio CC50/IC50” value [2] was 23 and the “Ratio CC50/IC50” value [3] was 3.4. The CC50 [4] was 1720 µM and the IC50 (Hepatitis B virus [5]) was 74 µM.
For `O=C1CN2OC2(c2ccccc2F)c2cc(Cl)ccc2N1` (stereo not given), the IC50 (Hepatitis B virus [1]) was greater than 3260 µM, the “Ratio CC50/IC50” value [2] was 1.8 and the “Ratio CC50/IC50” value [3] was less than 1. The CC50 [4] was 346 µM and the IC50 (Hepatitis B virus [5]) was 195 µM.
With `O=C1CN2OC2(c2ccccc2)c2cc(Cl)ccc2N1` (stereo not given) the IC50 (Hepatitis B virus [1]) was greater than 3280 µM, the “Ratio CC50/IC50” value [2] was 1.3 and the “Ratio CC50/IC50” value [3] was less than 1. The CC50 [4] was 946 µM and the IC50 (Hepatitis B virus [5]) was 728 µM.
In the case of `CC(=O)OC1N=C(c2ccccc2Cl)c2cc(Cl)ccc2NC1=O` (stereo not given), the IC50 (Hepatitis B virus [1]) is reported as 1940 µM, the “Ratio CC50/IC50” value [2] is reported as less than 1 and the “Ratio CC50/IC50” value [3] is reported as less than 1. For the same molecule, the CC50 [4] was 154 µM and the IC50 (Hepatitis B virus [5]) was 167 µM.
With `CC(=O)Nc1c(-c2ccccc2)c2cc(Cl)ccc2[nH]c1=O` the IC50 (Hepatitis B virus [1]) was 1870 µM, the “Ratio CC50/IC50” value [2] was 1.1 and the “Ratio CC50/IC50” value [3] was less than 1. For the same molecule, the CC50 [4] was 239 µM and the IC50 (Hepatitis B virus [5]) was 208 µM.
For `Nc1c(-c2ccccc2F)c2cc(Cl)ccc2[nH]c1=O`, the IC50 (Hepatitis B virus [1]) was greater than 3610 µM, the “Ratio CC50/IC50” value [2] was 14 and the “Ratio CC50/IC50” value [3] was less than 1. It also gave a CC50 [4] of 767 µM and an IC50 (Hepatitis B virus [5]) of 56 µM.
Molecule `O=C1CN=C(c2ccccc2)c2cc(Cl)ccc2N1` [NORDAZEPAM] has an IC50 (Hepatitis B virus [1]) of 835 µM and an IC50 (Hepatitis B virus [5]) of 255 µM.
In the case of `O=C1CN2OC2(c2ccccc2Cl)c2cc(Cl)ccc2N1` (stereo not given), the IC50 (Hepatitis B virus [1]) is reported as 4490 µM, the “Ratio CC50/IC50” value [2] is reported as less than 1 and the “Ratio CC50/IC50” value [3] is reported as less than 1. The CC50 [4] was 302 µM and the IC50 (Hepatitis B virus [5]) was 355 µM.
In the case of `O=c1cc(-c2ccccc2)c2cc(Cl)ccc2[nH]1`, the IC50 (Hepatitis B virus [1]) is reported as greater than 4140 µM, the “Ratio CC50/IC50” value [2] is reported as 2.6 and the “Ratio CC50/IC50” value [3] is reported as less than 1. The CC50 [4] was 1250 µM and the IC50 (Hepatitis B virus [5]) was 485 µM.
With `Nc1ccn([C@@H]2CS[C@H](CO)O2)c(=O)n1` [LAMIVUDINE] the “Ratio CC50/IC50” value [2] was 2.6, the “Ratio CC50/IC50” value [3] was 1.2 and the CC50 [4] was 30000 µM.
In the case of `O=c1[nH]c2ccc(Cl)cc2c(-c2ccccc2F)c1CCO`, the IC50 (Hepatitis B virus [1]) is reported as 545 µM, the “Ratio CC50/IC50” value [2] is reported as greater than 16 and the “Ratio CC50/IC50” value [3] is reported as greater than 5.5. It also gave a CC50 [4] greater than 2990 µM and an IC50 (Hepatitis B virus [5]) of 187 µM.
In the case of `O=c1cc(-c2ccccc2Cl)c2cc(Cl)ccc2[nH]1`, the IC50 (Hepatitis B virus [1]) is reported as greater than 6000 µM, the “Ratio CC50/IC50” value [2] is reported as 8 and the “Ratio CC50/IC50” value [3] is reported as less than 1. It also gave a CC50 [4] of 6000 µM and an IC50 (Hepatitis B virus [5]) of 752 µM.
In the case of `O=C1CN=C(c2ccccc2F)c2cc(Cl)ccc2N1`, the IC50 (Hepatitis B virus [1]) is reported as 5360 µM, the “Ratio CC50/IC50” value [2] is reported as less than 1 and the “Ratio CC50/IC50” value [3] is reported as less than 1. It also gave a CC50 [4] of 183 µM and an IC50 (Hepatitis B virus [5]) of 294 µM.
With `Nc1c(-c2ccccc2Cl)c2cc(Cl)ccc2[nH]c1=O` the IC50 (Hepatitis B virus [1]) was greater than 5470 µM, the “Ratio CC50/IC50” value [2] was 1 and the “Ratio CC50/IC50” value [3] was less than 1. The CC50 [4] was 341 µM and the IC50 (Hepatitis B virus [5]) was 341 µM.

From ChEMBL document CHEMBL1157443, “Synthesis and in vitro anti-hepatitis B virus activities of 4-aryl-6-chloro-quinolin-2-one and 5-aryl-7-chloro-1,4-benzodiazepine derivatives” (Bioorg Med Chem Lett, 2008)
